Reference: ChEMBL document CHEMBL1155755, “Microbial transformation of pyrethrosin” (J Nat Prod, 2001)
≈ marks a conversion by molar mass, not a printed value.

Tests used:
[1] = system: Plasmodium falciparum; experiment: Antiplasmodial activity against Plasmodium falciparum D6; type: functional, organism-based
[2] = system: Candida albicans; experiment: Antifungal activity against Candida albicans; type: functional, organism-based
[3] = system: SK-OV-3; experiment: Cytotoxicity against human SKOV3 cells; type: functional, cell-based
[4] = system: KB; experiment: Cytotoxicity against human KB cells; type: functional, cell-based
[5] = system: Cryptococcus neoformans; experiment: Antifungal activity against Cryptococcus neoformans; type: functional, organism-based
[6] = system: SK-MEL; experiment: Cytotoxicity against human SK-MEL cells; type: functional, cell-based
[7] = system: Plasmodium falciparum; experiment: Antiplasmodial activity against chloroquine-resistant Plasmodium falciparum W2; type: functional, organism-based

| Compound | IC50 [1] | IC50 [2] | IC50 [5] | IC50 [6] | further results |
| --- | --- | --- | --- | --- | --- |
| CC(=O)O[C@H]1[C@H]2[C@H](C[C@@]3(C)[C@H](O)CC[C@@](C)(O)[C@H]13)OC(=O)[C@@H]2C | 0.88 µg/mL (≈ 2.7 µM) | 10 µg/mL (≈ 30.6 µM) |  |  |  |
| C=C1CC[C@@H](O)[C@]2(C)C[C@@H]3OC(=O)[C@H](C)[C@H]3[C@H](OC(C)=O)[C@@H]12 |  |  |  |  | IC50 [3]: 8 µg/mL (≈ 25.9 µM); IC50 [4]: 1.1 µg/mL (≈ 3.57 µM) |
| C=C1CC[C@@H](O)[C@]2(C)C[C@@H]3OC(=O)[C@H](C)[C@H]3[C@H](O)[C@@H]12 |  |  | 35 µg/mL (≈ 131 µM) |  |  |
| C=C1C(=O)O[C@H]2C[C@@]3(C)O[C@@H]3CC/C(C)=C/[C@@H](OC(C)=O)[C@H]12 [PYRETHROSIN] |  | 30 µg/mL (≈ 97.9 µM) |  | 4.2 µg/mL (≈ 13.7 µM) |  |
| CC(=O)O[C@H]1[C@H]2[C@H](C[C@]3(C)[C@@H]1[C@](C)(O)CC[C@H]3OC(C)=O)OC(=O)[C@@H]2C | 0.32 µg/mL (≈ 0.869 µM) |  | 25 µg/mL (≈ 67.9 µM) |  | IC50 [7]: 0.38 µg/mL (≈ 1.03 µM) |
| CC1=CC[C@@H](O)[C@]2(C)C[C@@H]3OC(=O)[C@H](C)[C@H]3[C@H](O)[C@@H]12 |  |  |  | 7.5 µg/mL (≈ 28.2 µM) |  |
